Patent publication US6974800B1, “Formulations comprising an inhibitor of carboxypeptidase U and A thrombin inhibitor” (AstraZeneca AB, priority 1999, dated 2005)

Test system: lung fibrin deposition
Assay: Lung fibrin deposition in the anaesthetized rat (endotoxin + batroxobin, 125I-fibrinogen)
Type: in vivo, rat (Sprague Dawley)
Experimental: Batroxobin No. 520 CRY (American Diagnostica Inc., Greenwich, Conn., USA) was kept at 8° C. both while lyophilized and when dissolved in saline to a concentration of 10 BU/ml. It was used within 5 days in the experiments. The remaining drug was freezed and kept at […] for a maximum of 30 days.
Endotoxin L-3129 (Sigma, St. Louis, Mo., USA) was dissolved in saline to a concentration of 50 μg/ml. A fresh solution was prepared for each experiment.
^125I-labelled human fibrinogen (Amersham, Little Chalfont, Buck., UK) was stored at 8° C. while lyophilized. After dissolving in saline/aq.dest. (80/20 v/v) to a stock solution of approx. 0.8 MBq/ml (20 μCi/ml) it was divided into aliquots (one for each experiment), quickly freezed and stored at −20° C. It was used in the experiments within 14 days after the production date.
The thrombin inhibitor inogatran was dissolved in 40% (w/w) cyclodextrin (HPβCD) to a concentration of 5 mg/ml and stored at −20° C. It was further diluted with 40% cyclo-dextrin before use in the different experiments. In the studies the drug was administered subcutaneously.
The thrombin inhibitor melagatran was dissolved in saline.
The CPU inhibitors […] and Compound A were dissolved in deoxygenated saline. The saline was deoxygenated by ultrasonication for 20 min and subsequently by passing nitrogen for another 20 min. The solutions were always fresh-made for each experiment. The CPU inhibitor was administered to the rats as an i.v. infusion for 5 min.
Male rats of the Sprague Dawley strain (Charles River, Sweden) with a body weight of 325–425 g were used in these experiments. The animals were allowed to accommodate at AstraZeneca R&D, Mölndal, Sweden for 1 week before use.
Anaesthesia was induced and maintained by Inactin 100 mg/kg i.p.
Two catheters were inserted in the left jugular vein, one for administration of ^125I-fibrinogen and batroxobin and the other for administration of endotoxin and CPU inhibitor or their corresponding vehicles. A third catheter was inserted in the carotid artery for blood sampling and measurement of the mean arterial blood pressure and heart rate. To avoid blood clots in the arterial catheter a slow saline infusion (approx. 1.0 ml/kg*h) was maintained throughout the experiment. The rats were tracheotomized in order to facilitate spontaneous breathing. The body temperature was monitored and maintained at 38° C. by external heating.
The animals were given an i.v. injection of endotoxin (50 μg/kg) at the start of the experiment. Two hours later the thrombin inhibitor or its vehicle was injected subcutaneously and another 15 min later ^125I-fibrinogen (0.04 MBq) was given as an i.v. injection. An infusion lasting for five minutes of the CPU-inhibitor or its vehicle was started after 5 min. After 5 min, batroxobin (10 BU/kg) was given as an i.v. bolus injection for one minute.
Blood samples for determination of ^125I-content were taken in all experiments just before and 5, 20 and 30 min after the batroxobin administration. At the end of the experiment the lungs were excised, the tissue was gently washed in saline and thereafter blotted and weighed. The ^125I-content in the tissue and blood samples was determined, using a Wallac 1282 Compugamma counter. The ^125I-concentration in plasma and in the lungs was expressed as a percentage of the radioactivity in the reference arterial blood sample taken just prior to the batroxobin injection.
For each of the four different dose combinations, only CPU inhibitor, only thrombin inhibitor, thrombin inhibitor together with CPU inhibitor at 0.2 and 0.28 μmol/kg respectively, separate E-max models were fitted. The models were fitted on a logarithmic scale giving estimates of the median effective dose, i.e., the dose where half of the population has 50% effect.

## N=C(N)NCCSCC(CS)C(=O)O (racemic) [MERGETPA, DL-2-mercaptomethyl-3-guanidinoethylthiopropanoic acid]
Table I, CPU inhibitor alone, 8.4 μmol/kg i.v. infusion, 100% = no effect
  Remaining fibrin after treatment: 90 ± 18.1%
Table I, CPU inhibitor alone, 21.1 μmol/kg i.v. infusion
  Remaining fibrin after treatment: 37 ± 19.3%
Table I, CPU inhibitor alone, 33.7 μmol/kg i.v. infusion
  Remaining fibrin after treatment: 23 ± 17.3%

## Nc1ccc(CC(CS)C(=O)O)cn1 (stereo not drawn) [compound A, 3-(6-amino-pyridin-3-yl)-2-mercaptomethyl-propanoic acid]
Table II, CPU inhibitor alone, 0.20 μmol/kg i.v. infusion
  Remaining fibrin after treatment: 100 ± 25.8%
Table II, CPU inhibitor alone, 0.28 μmol/kg
  Remaining fibrin after treatment: 88 ± 23.2%
Table II, CPU inhibitor alone, 0.4 μmol/kg
  Remaining fibrin after treatment: 87 ± 50.6 n = 6%
Table II, CPU inhibitor alone, 2.0 μmol/kg
  Remaining fibrin after treatment: 49 ± 30.0 n = 7%
Table II, CPU inhibitor alone, 4.0 μmol/kg
  Remaining fibrin after treatment: 15 ± 9.3 n = 4%
Table II, CPU inhibitor alone, 20.0 μmol/kg
  Remaining fibrin after treatment: 7 ± 1.4 n = 2%
Table III, CPU inhibitor alone, 0.20 μmol/kg
  Remaining fibrin after treatment: 97 ± 24.1%
Table III, CPU inhibitor alone, 0.28 μmol/kg
  Remaining fibrin after treatment: 81 ± 24.5%

## N=C(N)NCCCNC(=O)[C@@H]1CCCCN1C(=O)[C@@H](CC1CCCCC1)NCC(=O)O [inogatran, HOOC—CH2—(R)Cha-Pic-Nag-H]
Table I, thrombin inhibitor alone, 2.3 μmol/kg s.c.
  Remaining fibrin after treatment: 94 ± 20.2 n = 6%
Table I, thrombin inhibitor alone, 3.4 μmol/kg s.c.
  Remaining fibrin after treatment: 72 ± 23.6 n = 6%
Table I, thrombin inhibitor alone, 5.7 μmol/kg s.c.
  Remaining fibrin after treatment: 41 ± 20.3 n = 6%
Table I, thrombin inhibitor alone, 17.2 μmol/kg s.c.
  Remaining fibrin after treatment: 39 ± 15.9 n = 6%

## N=C(N)c1ccc(CNC(=O)[C@@H]2CCN2C(=O)[C@H](NCC(=O)O)C2CCCCC2)cc1 [melagatran, HOOC—CH2—(R)Cgl-Aze-Pab-H]
Table II, thrombin inhibitor alone, 0.23 μmol/kg s.c.
  Remaining fibrin after treatment: 97 ± 12.4 n = 6%
Table II, thrombin inhibitor alone, 0.35 μmol/kg
  Remaining fibrin after treatment: 77 ± 22.4 n = 4%
Table II, thrombin inhibitor alone, 0.58 μmol/kg
  Remaining fibrin after treatment: 62 ± 17.0 n = 2%
Table II, thrombin inhibitor alone, 1.75 μmol/kg
  Remaining fibrin after treatment: 31 ± 13.3 n = 4%
Table II, thrombin inhibitor alone, 3.5 μmol/kg
  Remaining fibrin after treatment: 55 ± 21.7 n = 4%
Table III, thrombin inhibitor alone, 0.18 μmol/kg
  Remaining fibrin after treatment: 110 ± 15.2 n = 3%
Table III, thrombin inhibitor alone, 0.23 μmol/kg
  Remaining fibrin after treatment: 98 ± 11.5 n = 7%
Table III, thrombin inhibitor alone, 0.30 μmol/kg
  Remaining fibrin after treatment: 87 ± 27.6 n = 3%
Table III, thrombin inhibitor alone, 0.35 μmol/kg
  Remaining fibrin after treatment: 77 ± 22.4 n = 4%
